According to patent publication US9428504B2, “7-hydroxy-spiropipiperidine indolinyl antagonists of P2Y1 receptor” (BRISTOL-MYERS SQUIBB COMPANY, priority 2012, dated 2016):
Like-named read-outs stand apart in the source and are kept apart here.

How the values were obtained:
[1] = tested on: human platelet rich plasma (PRP); test: ADP induced platelet aggregation assay
Procedure: The ability of P2Y1 antagonists covered in the present invention to inhibit platelet aggregation induced by 10 μM ADP was tested using human platelet rich plasma (PRP) as described in Platelet Protocols: Research and Clinical Laboratory Procedures (White, M. M. et al., Academic Press (1999)). Human blood was collected in 30 μM (final concentration in blood) argatroban (GSK) as the anticoagulant at a ratio of 1 ml per 9 ml of blood. The PRP was isolated by centrifugation at 170 g for 12 minutes. The platelet poor plasma (PPP) was used as the blank for optical aggregometry. Compounds of the present invention in DMSO solution was preincubated with 250 μl PRP at 37° C. for 1 minute with stirring speed of 1000 rpm. Aggregation was initiated by addition of 2.5 μl of 1 mM ADP (Chrono-log, Havertown, Pa.) for a final ADP concentration of 10 μM. Platelet aggregation was monitored using Optical Aggregometer (Chrono-log, Havertown, Pa.) and the area under the curve (AUC) at 5 minute was measured. IC50 was calculated using vehicle control as 0% inhibition.

[2] = target: cloned human P2Y1 receptors (Homo sapiens (Human), UniProt P47900); test: Binding Assay B: Scintillation Proximity Assay (SPA) for P2Y1 binding; conditions: SPA, [33P] 2MeS-ADP displacement; read-out: P2Y1 Ki (nM) using binding assay B
Summary of the method: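 Scintillation proximity readout of 0.3 nM [^33P] tracer displacement from receptor membranes (~15 fmol receptor, 1.7 μg protein). Binding ran 1 h at room temperature to completion; plates were then centrifuged and aqueous phase aspirated before counting.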

[3] = Homo sapiens, Platelet, read-out: PA IC50 (μM) @ 10 μM ADP, platelet aggregation induced by 10 μM ADP, human PRP

cloned human P2Y1 receptors, sequence (P47900 whole entry): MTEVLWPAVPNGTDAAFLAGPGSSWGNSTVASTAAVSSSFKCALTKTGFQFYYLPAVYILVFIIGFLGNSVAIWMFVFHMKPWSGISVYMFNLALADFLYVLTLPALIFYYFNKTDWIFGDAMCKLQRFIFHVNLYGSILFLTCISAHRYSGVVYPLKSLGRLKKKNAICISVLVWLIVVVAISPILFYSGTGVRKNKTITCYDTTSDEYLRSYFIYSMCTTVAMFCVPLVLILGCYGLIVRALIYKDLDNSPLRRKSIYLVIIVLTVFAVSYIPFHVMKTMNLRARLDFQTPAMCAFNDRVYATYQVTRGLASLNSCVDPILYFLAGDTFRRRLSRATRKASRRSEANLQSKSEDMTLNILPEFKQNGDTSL

SMILES | IC50 [1, 3] [µM] | Ki [2] [nM] | IC50 ([1]; read-out: PA IC50 (μM) @ 10 μM ADP, platelet aggregation induced by 10 μM ADP, human PRP) [µM]
Cc1nc(NC(=O)Nc2ccccc2N2CC3(CCN(CC(C)(C)C)CC3)c3c(C(F)(F)F)ccc(O)c32)cs1 [Example 25, 1-(2-(7-Hydroxy-1′-neopentyl-4-(trifluoromethyl)spiro[indoline-3,4′-piperidine]-1-yl)phenyl)-3-(2-methylthiazol-4-yl)urea] | 0.1 | 4.9 | –
CC(C)CN1CCC2(CC1)CN(c1ccccc1NC(=O)Nc1nc3ccc(F)cc3s1)c1c(O)ccc(Cl)c12 [Example 4, 1-(2-(4-Chloro-7-hydroxy-1′-isobutylspiro[indoline-3,4′-piperidine]-1-yl)phenyl)-3-(6-fluorobenzo[d]thiazol-2-yl)urea] | 0.4 | 9.9 | –
CC(C)CN1CCC(c2ccc(NC(=O)Nc3ccccc3N3CC4(CCN(CC(C)(C)C)CC4)c4c(Cl)c(F)cc(O)c43)cc2)CC1 [Example 105, 1-(2-(4-Chloro-5-fluoro-7-hydroxy-1′-neopentylspiro [indoline-3,4′-piperidine]-1-yl)phenyl)-3-(4-(1-isobutylpiperidin-4-yl)phenyl)urea] | 1.1 | 12.7 | –
CC(C)CN1CCC2(CC1)CN(c1ccccc1NC(=O)Nc1nc3ccc(Cl)cc3s1)c1c(O)ccc(C#N)c12 [Example 80, 1-(6-Chlorobenzo[d]thiazol-2-yl)-3-(2-(4-cyano-7-hydroxy-1′-isobutylspiro[indoline-3,4′-piperidine]-1-yl)phenyl)urea] | 0.9 | 14.4 | –
Cc1ccc2nc(NC(=O)Nc3ccccc3N3CC4(CCN(CC(C)(C)C)CC4)c4c(Cl)c(F)cc(O)c43)sc2c1 [Example 97, 1-(2-(4-Chloro-5-fluoro-7-hydroxy-1′-neopentylspiro [indoline-3,4′-piperidine]-1-yl)phenyl)-3-(6-melhylbenzo [d]thiazol-2-yl)urea] | 0.7 | 11.5 | –
CC(C)(C)CN1CCC2(CC1)CN(c1ccccc1NC(=O)Nc1ccc(C(C)(C)C)cc1)c1c(O)ccc(C(F)(F)F)c12 [Example 11, 1-(4-tert-Butylphenyl)-3-(2-(7-hydroxy-1′-neopentyl-4-(trifluoromethyl)spiro[indoline-3,4′-piperidine]-1-yl)phenyl)urea] | 0.1 | 7.9 | –
CC(C)(C)CN1CCC2(CC1)CN(c1ccccc1NC(=O)Nc1ccc(C(C)(C)C)cc1)c1c(O)ccc(F)c12 [Example 7, 1-(4-tert-Butylphenyl)-3-(2-(4-fluoro-7-hydroxy-1′-neopentylspiro[indoline-3,4′-piperidine]-1-yl)phenyl)urea] | 0.6 | 4 | –
CC(C)(C)CN1CCC2(CC1)CN(c1ccccc1NC(=O)Nc1csc(C(F)(F)F)n1)c1c(O)ccc(Cl)c12 [Example 63, 1-(2-(4-Chloro-7-hydroxy-1′-neopentylspiro[indoline-3,4′-piperidine]-1-yl)phenyl)-3-(2-(trifluoromethyl)thiazol-4-yl)urea] | 0.4 | 4.9 | –
CC(C)(C)CN1CCC(NC(=O)Nc2ccccc2N2CC3(CCN(CC(C)(C)C)CC3)c3c(C(F)(F)F)ccc(O)c32)CC1 [Example 24, 1-(2-(7-Hydroxy-1′-neopentyl-4-(trifluoromethyl)spiro[indoline-3,4′-piperidine]-1-yl)phenyl)-3-(1-neopentylpiperidin-4-yl)urea] | 0.4 | 14.8 | –
CC(C)(C)CN1CCC2(CC1)CN(c1ccccc1NC(=O)Nc1ccc(C3CCCN3CC(C)(C)C)cc1)c1c(O)ccc(Cl)c12 (centres unmarked) [Example 58, 1-(2-(4-Chloro-7-hydroxy-1′-neopentylspiro[indoline-3,4′-piperidine]-1-yl)phenyl)-3-(4-(1-neopentylpyrrolidin-2-yl)phenyl)urea] | 0.2 | 12.4 | –
CC(C)(C)CN1CCC2(CC1)CN(c1ccccc1NC(=O)Nc1ccc(OC(F)(F)F)cc1)c1c(O)c(F)cc(-c3ccc(C(F)(F)F)cc3)c12 [Example 154, 1-(2-(6-Fluoro-7-hydroxy-1′-neopentyl-4-(4-(trifluoromethyl)phenyl)spiro[indoline-3,4′-piperidine]-1-yl)phenyl)-3-(4-(trifluoromethoxy)phenyl)urea] | 0.4 | 38.8 | –
CC(C)(C)CN1CCC2(CC1)CN(c1ccccc1NC(=O)Nc1ccc(C(F)(F)F)nc1)c1c(O)ccc(C(F)(F)F)c12 [Example 23, 1-(2-(7-Hydroxy-1′-neopentyl-4-(trifluoromethyl)spiro[indoline-3,4′-piperidine]-1-yl)phenyl)-3-(6-(trifluoromethyl)pyridin-3-yl)urea] | 1.1 | 8 | –
CC(C)(C)CN1CCC2(CC1)CN(c1ccccc1NC(=O)Nc1ccc(C(C)(C)C)cc1)c1c2ccc(F)c1O [Example 2, 1-(4-tert-Butylphenyl)-3-(2-(6-fluoro-7-hydroxy-1′-neopentylspiro[indoline-3,4′-piperidine]-1-yl)phenyl)urea] | 0.6 | 9 | –
CC(C)(C)CN1CCC2(CC1)CN(c1ccccc1NC(=O)Nc1ccc(C(F)(F)F)cc1)c1c(O)ccc(Cl)c12 [Example 60, 1-(2-(4-Chloro-7-hydroxy-1′-neopentylspiro[indoline-3,4′-piperidin]-1-yl)phenyl)-3-(4-(trifluoromethyl)phenyl)urea] | 0.4 | 6.4 | –
CC(C)(C)CN1CCC2(CC1)CN(c1ccccc1NC(=O)Nc1ccc(F)c(F)c1)c1c(O)ccc(C(F)(F)F)c12 [Example 15, 1-(3,4-Difluorophenyl)-3-(2-(7-hydroxy-1′-neopentyl-4-(trifluoromethyl)spiro[indoline-3,4′-piperidine]-1-yl)phenyl)urea] | 0.5 | 5.1 | –
CC(C)(C)CN1CCC2(CC1)CN(c1ccccc1NC(=O)Nc1csc(C(F)(F)F)n1)c1c(O)cc(F)c(-c3ccc(C(F)(F)F)nc3)c12 [Example 159, 1-(2-(5-Fluoro-7-hydroxy-1′-neopentyl-4-(6-(trifluoromethyl)pyridin-3-yl)spiro[indoline-3,4′-piperidin]-1-yl)phenyl)-3-(2-(trifluoromethyl)thiazol-4-yl)urea] | 0.1 | 281 | –
CC(C)(C)CN1CCC2(CC1)CN(c1ccccc1NC(=O)Nc1nc3ccc(Cl)nc3s1)c1c(O)ccc(Cl)c12 [Example 166, 1-(2-(4-Chloro-7-hydroxy-1′-neopentylspiro[indoline-3,4′-piperidine]-1-yl)phenyl)-3-(5-chlorothiazolo[5,4-b]pyridin-2-yl)urea] | – | 6.8 | 0.1
CC(C)CN1CCC2(CC1)CN(c1ccccc1NC(=O)Nc1nc3ccc(F)cc3s1)c1c(O)ccc(C(F)(F)F)c12 [Example 31, 1-(6-Fluorobenzo[d]thiazol-2-yl)-3-(2-(7-hydroxy-1′-isobutyl-4-(trifluoromethyl)spiro[indoline-3,4′-piperidine]-1-yl)phenyl)urea] | 0.1 | 16.4 | –
CC(C)(C)CN1CCC2(CC1)CN(c1ccccc1NC(=O)Nc1nc3ccc(F)cc3s1)c1c(O)cc(F)c(-c3ccc(C(F)(F)F)nc3)c12 [Example 161, 1-(2-(5-Fluoro-7-hydroxy-1′-neopentyl-4-(6-(trifluoromethyl)pyridin-3-yl)spiro[indoline-3,4′-piperidin]-1-yl)phenyl)-3-(6-fluorobenzo[d]thiazol-2-yl)urea] | 0.2 | 41.1 | –
